Assay results: patent publication US20250108023A1, “Products for Masking Bitterness” (The Third People's Hospital of Henan Province, priority 2023, published 2025)

Tests used:
[1] = Oral spray bitterness masking taste test by volunteers with Coptis chinensis standard bitter solution; type: in vivo, healthy volunteers; set-up: key to bitterness value after drug: bitterness value 0.5–5.5; 1 = none, 5 = unbearable; key to Reduction of bitterness: drop in bitterness value (0.5–5.5 scale) from initial; settings: for Reduction of bitterness / Reduction range / Duration > / inhibition in vivo at 0.2 %: 0.2% solution in 60% ethanol as oral spray; for Reduction of bitterness: original bitterness average 4.0, average of 31 cases; for Reduction range / inhibition in vivo at 0.2 %: relative to original bitterness 4.0; for Duration >: retention time until bitterness rises; for bitterness value after drug: initial bitterness 4.0, 16 cases; for inhibition in vivo at 0.2 %: Homo sapiens, read-out: Reduction range
Procedure: Purpose of the experiment: it is to screen out compounds that take effect within 5 seconds, last for 30-120 seconds, and it is expected, by using such kind of compounds, the taste of the drug cannot be felt during the duration (30-120 seconds) when taking the drug.
Principle of the experiment: simulate the process of taking medicine and using the taste masking agents, first spray about 0.5 ml of oral spray on the throat (3 times), and after it takes effect quickly, taste 10 ml of bitter standard solution to screen drugs that can be used in advance and can mask the bitter taste.
• 1: Volunteer screening. The research team strictly screened the recruited volunteers and finally selected healthy volunteers as subjects. They signed informed consent forms before the experiment; • 2: Standard bitterness sample preparation. The bitterness of the samples was divided into five levels, and each level was assigned a certain bitterness value range; • 3: The sensory standard was corrected by the oral taste evaluation method, that is, the sensory standard was corrected by comparing the taste evaluation of the volunteers with the established bitterness value of the reference sample group. Specific steps: when the volunteers are doing the oral tasting test, the reference solutions of various concentrations are placed in the tasting cups, and the volunteers hold one of the solutions in their mouths, time it, and rinse their mouths by using the solution so that the bitter taste perception area at the root and sides of the tongue can fully feel the bitter taste of the drug. […] Then dilute all the selected taste masking drugs, prepare the solution, take 10 ml and put it into the spray bottle, spray it into the mouth 3 times, stay for 5 seconds, drink 10 ml of standard bitterness solution, feel and record the bitterness value, keep the standard bitterness solution in the mouth until the bitterness rises, and record the retention time. • 5: Quality control. […] Since the experimental objects are biological samples and there are individual differences between different subjects, there may be individual outliers in the experimental test data. The Grubbs test method was used to exclude outliers in the data, and then the experimental data were plotted in tables and curves for data analysis.
It is necessary to process the experimental data. Specifically, the Grubbs test method was used to perform a circular test and elimination of outliers on the data, and a bilateral test was used to eliminate outliers in the oral test. Considering the characteristics of biological samples, the detection level was selected as 0.1 and the elimination level was selected as 0.05 in this experiment.
The experimental medicinal material processing method mentioned in the above technical scheme is as follows: Preparation of bitter standard solution, use 10 g of Coptis chinensis powder, add 100 ml of pure water above 90 degrees, stir, let stand for 20 minutes, take the supernatant for use, determine the standard bitterness of 4.0 degrees by oral tasting, dilute 5 times, determine the standard bitterness of 2.0 degrees, dilute 2.0 degrees again 5 times, determine the standard bitterness of 0.5 degrees. Compare with the bitterness scoring table, (level 1 means “no bitterness or almost no bitterness”, the bitterness value is 0.5˜1.5; level 2 means “slightly bitter”, the bitterness value is 1.5˜2.5; level 3 means “bitter but acceptable”, the bitterness value is 2.5˜3.5; level 4 means “very bitter, but still tolerable”, the bitterness value is 3.5˜4.5; level 5 means “unbearable bitterness”, the bitterness value is 4.5˜5.5). Adjust the judgment and cognition of bitterness.
The standard bitterness solution used in this experiment to verify the experimental effect is a 4.0 degree bitterness solution of Coptis chinensis prepared according to the above method.

[2] = Broad-spectrum taste masking test on decoctions of extremely bitter Chinese herbal medicine slices; type: in vivo, healthy volunteers; set-up: key: reduction in bitterness degrees on a 5-degree graduation scale; settings: 0.1% taste masking agent in 40% ethanol
Procedure: According to the standard of decocting 100 ml of liquid from 10 g of dry Chinese herbal medicine slices (decoction method: use a stainless steel container, and keep for 20 minutes after boiling), from 300 commonly used Chinese herbal medicine slices, combined with the Chinese Pharmacopoeia, more than 20 Chinese herbal medicines with bitter or extremely bitter properties written in the pharmacopoeia were selected, including Bletilla striata, Cortex qin, Stephania tetrandra, Apricot kernel, Belamcanda chinensis, Angelica dahurica, Lotus seed heart, Toosendan fruit, Andrographis paniculata, Sophora flavescens, Coptis chinensis, Gentiana scabra, Forsythia suspensa, Sophora japonica, Phellodendron amurense, Scutellaria baicalensis, Platycodon grandiflorum, Notopterygium wilfordii, Saposhnikovia divaricata, Perilla frutescens, Zanthoxylum bungeana, Osmanthus fragrans, Sophora flavescens, and Chrysanthemum officinale, totally 24 kinds of Chinese herbal medicines.
Finally, through the 5-degree graduation method, 2 species with a bitterness higher than 3.5 (moderate bitterness) and 7 species with a bitterness higher than 5 degrees (highly bitter, extremely bitter, accompanied by nausea) were screened out, a total of 9 species (Angelica pubescens, Lotus Seed Heart, Toosendan, Andrographis paniculata, Sophora flavescens, Coptis chinensis, Gentiana scabra, Forsythia suspensa, Sophora japonica) are selected as bitterness representatives to participate in the bitterness masking experiment. (Note: The bitterness of Coptis chinensis slices can reach 5.2 after 20 minutes of water decoction. The reference standard solution is 90-degree water brewing Coptis chinensis powder, it is automatically cooled to obtain a solution with a bitter taste of 4.0. Because Coptis chinensis has been used as a standard bitter liquid, it is no longer used).
The experimental method is the same as the previous part.

[3] = concentration 0.001% in 60% ethanol
[4] = concentration 0.005% in 60% ethanol
[5] = concentration 0.02% in 60% ethanol
[6] = concentration 0.10% in 60% ethanol
[7] = concentration 0.50% in 60% ethanol

| Compound | Reduction of bitterness [1] | Reduction range [1] [%] | Duration > [1] [s] | bitterness value after drug [1, 3] | bitterness value after drug [1, 4] | bitterness value after drug [1, 5] | bitterness value after drug [1, 6] | bitterness value after drug [1, 7] | inhibition in vivo at 0.2 % [1] [%] | other results |
| --- | --- | --- | --- | --- | --- | --- | --- | --- | --- | --- |
| CCOC(=O)CNC(=O)[C@@H]1C[C@H](C)CC[C@H]1C(C)C [Cooling agent WS-5, [((IR, 2S, 5R)-2-isopropyl-5-methyl-cyclohexanecarbonyl)-amino]-ethyl acetate] | 2.3 | 57.50 | > 100 | 2.6 | 1.8 | 1.7 | 1.7 | 1.8 | – | – |
| CNC(=O)C(C)(C(C)C)C(C)C [Cooling agent WS-23, N,2,3-trimethyl-2-isopropylbutyramide] | – | – | > 30 | 2.5 | 2.4 | 2.1 | 2 | 2.1 | 50 | – |
| CCCCCC1=C(C)CCC1=O [Dihydrojasmone] | 0 | 0.00 | – | – | – | – | – | – | – | – |
| COC(=O)[C@@H]1CC2=CC(=O)CC[C@]2(C)[C@@]23O[C@@H]2C[C@@]2(C)[C@@H](CC[C@@]24CCC(=O)O4)[C@H]13 [Eplerenone, reference compound] | – | – | – | – | – | – | – | – | 0 | – |
| COc1cc(C=O)cc(O)c1O [Hydroxyvanillin] | 0 | 0.00 | – | – | – | – | – | – | – | – |
| O=S(=O)([O-])[O-].[Mg+2] [Magnesium sulfate] | 1.5 | 37.50 | > 20 | 3.5 | 3.2 | 2.8 | 2.5 | 2.3 | – | – |
| CCNC(=O)[C@@H]1C[C@H](C)CC[C@H]1C(C)C [Menthamide, N-ethyl-L-menthyl carboxamide] | 2.5 | 62.50 | > 120 | 2.4 | 1.8 | 1.5 | 1.5 | 1.6 | – | Bitterness reduction value ([2]; Andrographis paniculata, original bitterness 5): 0.5; Bitterness reduction value ([2]; Forsythia suspensa, original bitterness 3): 1.7; Bitterness reduction value ([2]; Gentiana, original bitterness 5): 1; Bitterness reduction value ([2]; Lotus seed heart, original bitterness 5): 2.8; Bitterness reduction value ([2]; Puhuo, original bitterness 5): 2.1; Bitterness reduction value ([2]; Sophora flavescens, original bitterness 5): 1; Bitterness reduction value ([2]; Toulianzi, original bitterness 5): 1 |
| COC(=O)C1=C(C)NC(C)=C(C(=O)OC)C1c1ccccc1[N+](=O)[O-] [Nifedipine, reference compound] | – | – | – | – | – | – | – | – | 0 | – |
| O=C(CCc1ccc(O)cc1)c1c(O)cc(O)cc1O [Phloretin] | – | – | – | – | – | – | – | – | 0 | – |
| O=C(/C=C/C=C/c1ccc2c(c1)OCO2)N1CCCCC1 [Piperine, (E,E)-1-[5-(1,3-benzodioxol-5-yl)-1-oxo-2,4-pentadieny1]-piperidine] | – | – | > 30 | 3.9 | 2.5 | 2.3 | 1.9 | 1.9 | 52.5 | – |
| CCCN(CCC)S(=O)(=O)c1ccc(C(=O)O)cc1 [Probenecid, reference compound] | – | – | > 30 | – | – | – | – | – | 12.5 | – |
| O=c1c(O)c(-c2ccc(O)c(O)c2)oc2cc(O)cc(O)c12 [Quinolide] | – | – | – | – | – | – | – | – | 0 | – |
| CC1CC(O)CC(C)(C)C1 (stereo not shown) [Trimethylcyclohexanol] | 0 | 0.00 | – | – | – | – | – | – | – | – |
| Dodecalactone | 0 | 0.00 | – | – | – | – | – | – | – | – |
| trans-caryophyllene | 2.3 | 57.50 | > 30 | 3.8 | 2.6 | 1.9 | 1.7 | 1.8 | – | – |
